test system: FLU A (PR/8/34); test: Flu A Neuraminidase Antiviral Assay; assay type: cell-based; conditions: not given

| SMILES | EC50 [nM] |
| --- | --- |
| Cc1cc(=O)c(O)c2n1N1C(c3ccccc3)C(CC(F)(F)F)CCC1N(C)C2=O (single isomer, unassigned) [Compound 132D, 7-hydroxy-5,10-dimethyl-1-phenyl-2-(2,2,2-trifluoroethyl)-1,2,3,4,4a,5-hexahydrodipyrido[1,2-b:2′,1′-f][1,2,4]triazine-6,8-dione] | > 810 |
| CN1C(=O)c2c(O)c(=O)ccn2N2C(c3ccccc3)C(c3cc(F)c(F)cc3F)CCC12 (single isomer, unassigned) [Compound 86A, 7-hydroxy-5-methyl-1-phenyl-2-(2,4,5-trifluorophenyl)-1,2,3,4,4a,5-hexahydrodipyrido[1,2-b:2′,1′-f][1,2,4]triazine-6,8-dione] | 4.3 |
| CN1C(=O)c2c(O)c(=O)ccn2N2C(c3ccccc3)C(CC3CC3(F)F)CCC12 (single isomer, unassigned) [Compound 114B, 2-((2,2-difluorocyclopropyl)methyl)-7-hydroxy-5-methyl-1-phenyl-1,2,3,4,4a,5-hexahydrodipyrido[1,2-b:2′,1′-f][1,2,4]triazine-6,8-dione] | > 8100 |
| CCC1(c2ccccc2)CCCC2N(C)C(=O)c3c(O)c(=O)ccn3N21 (single isomer, unassigned) [Compound 22C, 1-ethyl-7-hydroxy-5-methyl-1-phenyl-1,2,3,4,4a,5-hexahydrodipyrido[1,2-b:2′,1′-f][1,2,4]triazine-6,8-dione] | > 8100 |
| O=C1c2c(O)c(=O)ccn2N2C(c3ccccc3)CCCC2N1CC1CC1 (single isomer, unassigned) [Compound 56A, 5-(cyclopropylmethyl)-7-hydroxy-1-phenyl-1,2,3,4,4a,5-hexahydrodipyrido[1,2-b:2′,1′-f][1,2,4]triazine-6,8-dione] | > 8100 |
| CN1C(=O)c2c(O)c(=O)ccn2N2C(c3ccccc3)C(O)CCC12 (stereo not drawn) [Compound 135B, 2,7-dihydroxy-5-methyl-1-phenyl-1,2,3,4,4a,5-hexahydrodipyrido[1,2-b:2′,1′-f][1,2,4]triazine-6,8-dione] | > 8100 |
| CN1C(=O)c2c(O)c(=O)ccn2N2C1CCCC2(C)c1cccc(Cl)c1 (single isomer, unassigned) [Compound 28B, 1-(3-chlorophenyl)-7-hydroxy-1,5-dimethyl-1,2,3,4,4a,5-hexahydrodipyrido[1,2-b:2′,1′-f][1,2,4]triazine-6,8-dione] | 278 |
| Cc1ccccc1C1N2C(CCC13CCC(F)(F)CC3)N(C)C(=O)c1c(O)c(=O)ccn12 (single isomer, unassigned) [Compound 70B, 4,4-difluoro-7′-hydroxy-5′-methyl-1′-(o-tolyl)-3′,4′,4a′,5′-tetrahydro-1′H-spiro[cyclohexane-1,2′dipyrido[1,2-b:2′,1′-f][1,2,4]triazine]-6′,8′-dione] | 2 |
| Cc1ccccc1C1C(CC2CC2(F)F)CCC2N(C)C(=O)c3c(O)c(=O)ccn3N12 (single isomer, unassigned) [Compound 88D] | 2.9 |
| CC1(c2ccccc2)CCCC2N(CCC(F)(F)F)C(=O)c3c(O)c(=O)ccn3N21 (single isomer, unassigned) [Compound 38B, 7-hydroxy-1-methyl-1-phenyl-5-(3,3,3-trifluoropropyl)-1,2,3,4,4a,5-hexahydrodipyrido[1,2-b:2′,1′-f][1,2,4]triazine-6,8-dione] | 5.8 |

same assay, conditions: MDCK, 48 h

| SMILES | EC50 [nM] |
| --- | --- |
| COCCC1CCC2N(C)C(=O)c3c(O)c(=O)ccn3N2C1c1ccccc1Cl (stereo not drawn) [Compound 67, 1-(2-chlorophenyl)-7-hydroxy-2-(2-methoxyethyl)-5-methyl-1,2,3,4,4a,5-hexahydrodipyrido[1,2-b:2′,1′-f][1,2,4]triazine-6,8-dione] | 16.4 |
| CN1C(=O)c2c(O)c(=O)ccn2N2C(c3ccccc3C(F)(F)F)CCCC12 (single isomer, unassigned) [Compound 14A, 7-hydroxy-5-methyl-1-(2-(trifluoromethyl)phenyl)-1,2,3,4,4a,5-hexahydrodipyrido[1,2-b:2′,1′-f][1,2,4]triazine-6,8-dione] | > 8100 |

— patent publication US20240018145A1, “[…]-DEPENDENT EN[…] TREATING OR […]” (priority 2020, published 2024)
